The subject of data set [1] is NCI-H358 human non-small cell lung cancer cells with KRAS G12C mutation. Nature of the data set: Cell experiment: anti-proliferative activity, CellTiter-Glo, NCI-H358. It counts as cell-based. The following applies: Homo sapiens, NCI-H358, 120 h, 5 days culture. On the procedure: (§1) This experiment is intended to verify that the compounds of the present invention have an inhibitory effect on the proliferation of NCI-H358 human non-small cell lung cancer cells with KRAS G12C mutation, MIA PaCa2 human pancreatic cancer cells with KRAS G12C mutation and wild-type A375 human malignant melanoma cells.
(§2) 40 μl of phosphate buffer was added to the peripheral wells of three 384-well microplates respectively, and 40 μl of cell suspension to be tested was added to the other wells of each plate respectively (plate 1: NCI-H358 cell suspension containing 500 NCI-H358 cells; plate 2: MIAPaCa2 cell suspension containing 300 MIAPaCa2 cells; plate 3: A375 cell suspension containing 300 A375 cells). The three cell plates were then placed in a carbon dioxide incubator and incubated overnight. Echo was used to perform a 3-fold gradient dilution of the compounds to be tested, and each compound was diluted with 10 concentration gradients (diluted from 50 μM to 0.003 μM), 100 nl of which was respectively added to the corresponding wells of the cell plates; after dosing, 40 μL of phosphate buffer was added to each well of rows A and P and columns 1 and 24, and then the cell plates were put back to the carbon dioxide incubator for culturing for 5 days. 20 μl of Promega CellTiter-Glo reagent per well was added to the cell plates, which was shaken at room temperature for 10 minutes in the dark to stabilize the luminescence signal. A PerkinElmer Envision multi-label analyzer was used for reading.
(§3) Data analysis: IC50 results were analyzed by GraphPad Prism 5.0 software […].
For orientation: In ATP-based viability assays light output follows the ATP content of the culture.

For data set [2], the system named is MIA PaCa2 human pancreatic cancer cells with KRAS G12C mutation. Nature of the data set: Cell experiment: anti-proliferative activity, CellTiter-Glo, MIA PaCa2. The data set is classed as cell-based. The note with it: Homo sapiens, MIA PaCa-2, 120 h, 5 days culture. On the procedure: as §1, §2, §3
Data set [3] in a line: Rat pharmacokinetic evaluation experiment. The data set is classed as in vivo. The note with it: plasma, male SD rats; for AUC: read-out: AUC (exposure). The text has this:
To determine the drug concentrations in plasma at different times after intravenous and intragastric administration of the test compounds to the rats by using the LC/MS/MS method and using male SD rats as the test animals; To study the pharmacokinetic behaviors of the test compounds in rats and to evaluate the pharmacokinetic characteristics thereof.
Experiment scheme: 10 healthy adult male SD rats were used as experimental animals and divided into 4 groups according to the principle of similar body weight, with 2 in each group of the group IV (two groups) and 3 in each group of the group PO (two groups). The animals were purchased from Beijing Vital River Laboratory Animal Technology Co., Ltd.
Group IV: an appropriate amount of samples were weighed; an appropriate amount of DMSO, PEG400 and water were added successively thereto according to the volume ratio of 10:60:30; and stirring was performed under sonication to reach a clear state of 1.5 mg/mL.
Group PO: an appropriate amount of samples were weighed; an appropriate amount of DMSO, PEG400 and water were added successively thereto according to the volume ratio of 10:60:30; and stirring was performed under sonication to reach a clear state of 1.0 mg/mL.
After fasting overnight, each rat in the group IV was administered intravenously with a volume of 2 mL/kg and a dose of 3 mg/kg; each rat in the group PO was administered intragastrically with a volume of 10 mL/kg and a dose of 10 mg/kg.
After each of the male SD rats in the group IV was administrated with the test compounds, 200 ul of blood samples were collected at 0.0833, 0.25, 0.5, 1, 2, 4, 6, 8 and 24 hours, and were placed in a commercial anticoagulation tube pre-loaded with EDTA-K2. After each rat in the group PO was administrated with the test compounds, 200 ul of blood samples were collected at 0.25, 0.5, 1, 2, 4, 6, 8 and 24 hours respectively, and were placed in a commercial anticoagulation tube pre-loaded with EDTA-K2. The test tube was centrifuged for 15 minutes to separate the plasma and stored at −60° C. 2 hours after administration, the animals can be fed. The content of the test compounds in plasma was determined by the LC/MS/MS method after intravenous and intragastric administration to the rats. The linear range of the method was from 2.00 to 6000 nM; plasma samples were analyzed after treatment of precipitating proteins by acetonitrile.
Note: Cl: clearance rate; Vd: volume of distribution; AUC: exposure; T1/2: half-life; Cmax: maximum compound concentration after oral administration; Tmax: time to reach Cmax; F: bioavailability.

Data set [4] relates to human non-small cell lung cancer NCI-H358. Kind of data set: In vivo drug efficacy test (2): subcutaneous xenograft tumor model. The following applies: 100 mg/kg (0-6 days) + 50 mg/kg (7-20 days). Also noted: species or system BALB/c nude mice. The protocol:
To evaluate the in vivo efficacy of the test compounds in a subcutaneous xenograft tumor model of human non-small cell lung cancer NCI-H358.
BALB/c nude mice, female, 6-8 weeks old, weighing 18-21 grams. A total of 100 were required. They were provided by Shanghai Lingchang Experimental Animal Co., Ltd ( ? ? ). NCI-H358 tumor cells were resuspended in PBS to prepare 0.1 mL (5×10^6) of cell suspension, which was inoculated subcutaneously on the right back of each mouse (5×10^6/mouse) to wait for tumor growth. When the average tumor volume reached about 150-200 mm^3, randomized grouping and administration were performed, and the administration dose was shown in Table 6. The diameter of the tumor was measured with vernier calipers twice a week. The formula for calculating the tumor volume is: V=0.5a×b^2, wherein a and b represent the long and short diameters of the tumor, respectively. The tumor suppressive effect of the compounds was evaluated by TGI (%). TGI (%) reflects the tumor growth inhibition rate. Calculation of TGI (%): TGI (%)=[(1−(average tumor volume at the end of administration in a treatment group−average tumor volume at the beginning of administration in the treatment group))/(average tumor volume at the end of treatment in the solvent control group−average tumor volume at the beginning of treatment in the solvent control group)]×100%.

Read-outs that look alike come from different tables or passages of the source.

A word on the IC50: it is the point on the concentration scale where inhibition reaches its midpoint. The term AUC denotes the area under the concentration-time curve, a measure of exposure. Usually clearance stands for the rate of elimination divided by the concentration. In general, Vd refers to the apparent volume that relates the amount in the body to the concentration in plasma or blood. Broadly, the Cmax is the maximum level reached in the sampled fluid or tissue. The Tmax is the time at which the peak concentration occurs. One may read the bioavailability as the share of a dose that reaches the circulation, judged against a reference dose that is usually intravenous. `C=CC(=O)N1CCN(c2ncnc3c(=O)n(-c4c(N)c(Cl)cc(Cl)c4F)c(C(F)(F)F)cc23)CC1` [Example 49] displayed an IC50 in data set [1] of 50 nM. The midpoint of inhibition in data set [2], the IC50, lay at 70 nM. Besides, in data set [3] (IV 3 mg/kg), the AUC came out at 4.62 µM·h. Moreover, the clearance in data set [3] (IV 3 mg/kg, read-out: Cl (clearance rate)) was determined as 20.6 mL/min/kg. Also, the half-life in data set [3] (IV 3 mg/kg, read-out: T1/2 (half-life) (converted)) is 0.94 h. Also, the Vd in data set [3] (IV 3 mg/kg, read-out: Vd (volume of distribution)) worked out at 2.15 L/kg. In data set [3] (PO 10 mg/kg), the Cmax was 2110 nM, the Tmax turned out to be 1.67 h and the AUC is 7.74 µM·h. The bioavailability in data set [3] (PO 10 mg/kg, read-out: F (bioavailability)) came to 52%. Further, in data set [4], the “Tumor volume (day 20)” value was 30 mm^3. In data set [4] (day 20), the TGI is given as 125.66%.
